Experimental data from publication PMC10535741, “Styrylpyridinium Derivatives for Fluorescent Cell Imaging” (Pharmaceuticals, 2023).

Test system: BHK-21 cells
Type: cell-based, Syrian hamster
Details: BHK-21, 24 h after staining
Experimental: SP compound 6e was selected for fluorescent cell imaging analysis. First, the compound was used to label the BHK-21 cells that are widely used in molecular biology studies. Commercially available CellTracker™ Deep Red dye (Invitrogen) was used as a control because it has a similar emission range (ex/em: 630/660). The BHK-21 cells were incubated with fluorescent dyes to stain the cells, then seeded on a 24-well plate and cultured for 24 h. SP compound 6e was used at 25 μM concentration, providing a non-toxic effect on BHK-21 cells (Table S2, entry 5, Supplementary Materials). The Deep Red dye was used according to the manufacturer’s instructions.
The day after staining, the cells were collected and washed several times with PBS buffer in order to evaluate the stability of the staining. The fluorescent signal was analysed by flow cytometry (Figure 3). […] However, only (61 ± 3)% of Deep Red stained cells were positive, whereas SP compound 6e ensured 99.9% positive cells. Moreover, the signal intensity (fluorescence shift from unstained cells) of cells stained with compound 6e was remarkably higher than for the Deep Red dye. The calculated stain index for SP compound 6e was (92 ± 19) before cell washing and (77 ± 15) after cell washing. However, in the case of Deep Red, the calculated stain index was (2.27 ± 0.07) before cell washing and (2.21 ± 0.07) after cell washing. High intensity usually facilitates flow cytometry data acquisition by enhancing the signal-to-background ratio and enabling optimal compensation in complex multicolour fluorescence analysis. […]
When cells reached 90% confluency, they were stained with 25 μM compound 6e or 1 μM CellTracker™ Deep Red dye (Cat. No. C34565; Invitrogen) according to the manufacturer’s instructions. […] Stained cells were kept at 4 °C and analysed using a FACSAria BD Hardware flow cytometer with FACSDiva 6.1.3 software (BD Biosciences, San Jose, CA, USA). […] The data were analysed using FlowJo 10.3 software (FlowJo LLC, Ashland, OR, USA) and presented as the mean of three independent experiments. […]

Structure (SMILES): CCCCCCCCCCCCCCCC[n+]1ccc(C=CC=Cc2cc3c4c(c2)CCCN4CCC3)cc1.[Br-] [Compound 6e, 1-hexadecyl-4-(4-(2,3,6,7-tetrahydro-1H,5H-pyrido[3,2,1-ij]quinolin-9-yl)buta-1,3-dien-1-yl)pyridin-1-ium bromide]
- stain index after cell washing (washed 3 times with PBS): 77 ± 15
- positive (stained) cells (25 μM 6e or 1 μM Deep Red): 99.9%
- stain index before cell washing (25 μM 6e or 1 μM Deep Red): 92 ± 19
